Measurements reported in patent EP0454461A1, “Selective amplification system using Q beta replicase, a hybridization assay and a method of detecting and assessing concentration of target nucleic acid in liquid samples” (GENE-TRAK SYSTEMS CORPORATION, priority 1990, dated 1991).

Assays:
[1] = system: Qβ replicase; assay: Inhibition by dyes of MDV-1 replication in linear-phase Qβ replicase reactions; assay type: biochemical, bacteriophage Qβ; settings: about 3µg/ml dye; MDV-1 template
Protocol: A number of dyes, including ethidium bromide, ethidium bromide homodimer, propidium iodide, proflavine, quinacrine, Hoescht 33258 (bis-benzamidine), dimidium bromide and acridine orange, were tested for their ability to inhibit the replication of MDV-1 in linear-phase reactions, i.e., where the template RNA is present in excess over the enzyme and the amount of replicated RNA thus increases linearly with time. […] One of the strongest inhibitors, propidium iodide, was selected for further study. A concentration of dye producing a 70% inhibition of replication, about 3µg/ml, is sufficiently low to allow detection of the fluorescence increase produced when the dye binds to the RNA products of the reaction.

[2] = system: Qβ replicase; assay: Effect of propidium iodide on replication of wild type MDV-1 RNA in a Qβ replicase preparation (32P-CTP incorporation, geometric phase); assay type: biochemical, bacteriophage Qβ; settings: wild type MDV-1 template
Protocol: Propidium iodide was tested for its effect on the replication of wild type RNA in a preparation of Qβ replicase. Propidium iodide in an amount of either 0, 1, or 3µg/ml was added to a reaction buffer containing: 90mM Tris HC1 (pH7.5), 14mM MgC1₂, 0.4mM each ATP, GTP, UTP, and CTP, and 10µCi α-³²P-CTP. The Qβ replicase reaction was initiated in each sample by addition of 1.2µg of Qβ replicase prepared according to the method of Eoyang and August, (1972), ibid. Aliquots of the reaction mixture were withdrawn every 5 minutes and spotted on DE81 filters (Schleicher & Schuell Inc., Keene, NH). The spotted filters were washed repeatedly with 0.5M NaPO₄, (pH7.0) to remove unincorporated nucleotide. The filters were counted for Cerenkov radiation by standard procedures in a scintillation counter. Addition of propidium iodide delayed the point in time at which levels of incorporation resulting from the replication of wild type MDV-1 template became detectable. One microgram per milliter delayed the appearance of replicated product between about 2-5 minutes, which corresponds to about 20-50% inhibition of the rate of replication in the geometric phase, and 3µg/ml delayed the appearance of product for about 20 minutes, which corresponds to approximately a 3-fold reduction in the rate of replication.

CC[N+](C)(CC)CCC[n+]1c(-c2ccccc2)c2cc(N)ccc2c2ccc(N)cc21 [propidium iodide]
inhibition of replication [1]: 70% | delay of the appearance of replicated product ([2]; 1 µg/ml propidium iodide): 2 to 5 min | inhibition of the rate of replication in the geometric phase ([2]; 1 µg/ml propidium iodide): 20-50% | delay of the appearance of product ([2]; 3µg/ml propidium iodide): about 20 minutes | reduction in the rate of replication ([2]; 3µg/ml propidium iodide): ~3 fold
